Reference: patent publication US10266807B2, “Methods and compositions for culturing endoderm progenitor cells in suspension” (FUJIFILM Cellular Dynamics, Inc., priority 2013, dated 2019)
Values belong to the compound of their own block, whether it stands above or below them.

Columns and labels:
Type in all cases: cell-based, human
[1] = tested on: undifferentiated iPSCs (2.038); assay: Generation of definitive endoderm (DE) from undifferentiated iPSCs with or without CHIR; details: for CXCR4/CD117 co-expressing cells / Output DE Day 7: 2 μM CHIR (+)
Method: Undifferentiated iPSCs maintained using Essential 8 on Matrigel were plated at a seeding density of 13,000 cells/cm^2 on Matrigel. Four days-post-plating, the cells were placed in 90% RPMI/10% SFD media containing 100 ng/mL Activin A for one day followed by incubation with 90% RPMI/10% SFD supplemented with 100 ng/mL Activin A, 2.5 ng/mL BMP4, 10 ng/mL VEGF, and 10 ng/mL zebrafish FGF2 for the next two days. From day 4-12, the cells were placed in SFD media supplemented with 100 ng/mL Activin A, 2.5 ng/mL BMP4, 10 ng/mL VEGF, and 10 ng/mL zebrafish FGF2. Supplementation with 2 μM CHIR was included in one set at day 1 of differentiation while it was omitted in another set. The cells were harvested on day 7 using TrypLE. The total viable cell number post digestion was determined at each time point. The percentage of CXCR4, CD117 co-expressing cells was determined by cell surface staining by flow cytometry (Table 1). The absolute number of CXCR4/CD117 double-positive cells was calculated. The ratio of input iPSC to output DE was also quantified (Table 1).

[2] = tested on: beta cells derived from 2.038AT4 cells; assay: C-peptide release assay (glucose responsiveness) of end-stage beta cells
Method: C-peptide release assays were performed as previously described (D'Amour et al., 2006) using a Mercodia Ultrasensitive C-peptide ELISA kit (Mercodia). Briefly, aggregates that were beyond day 25 in the beta cell differentiation protocol from each iPSC clone were placed in a millicell PCF insert within a 24 well plate. The aggregates were equilibrated in 1 ml KRBH medium for one hour at 37° C. and 5% CO2, 20% O2. The aggregates were next placed in a second well containing 0.5 ml KRBH medium supplemented with serially increasing levels of glucose from 1-20 mM. Each incubation lasted for 20 mins at 37° C. and 5% CO2, 20% O2. Extreme care was taken to drain the aggregates of all residual fluid between well transfers. The supernatant left behind was collected and stored at −20° C. At the end of the experiment the aggregates were digested with TryPLE and the total viable cell count per sample was determined to normalize the data. C-peptide secretion was normalized based on the total viable cell number taken for each sample.
C-peptide release assays were performed as described in Example 12. Beta cell cultures induced with Dox induction between days 10-15 generated a response to between 1-5 mM glucose (FIG. 28). […]
The experiment was performed again with the addition of Dox (1.5 μg/ml) between day 10-15 of beta cell differentiation. […] Glucagon expression was not recorded. […]

2.038AT4 cells [3] = assay: Beta cell differentiation of 2.038AT4 EPCs with Dox induction, intracellular flow cytometry; details: Dox 1.5 μg/ml between day 10-15, harvested day 15, repeat experiment
Method: 2.038AT4.14EGN (also called 2.038AT4) cells were maintained in Essential 8 under hypoxic conditions during DE induction without CHIR using 2.5 ng/ml BMP4. DE were maintained in EPC cycling media without MEFs under hypoxic conditions. Media was supplemented with neomycin (100 ug/ml) and puromycin (600 ng/ml) for iPSC culture, DE culture, and EPC cycling. At P7, EPC were harvested and MACS purification was performed using CD34/CXCR4/CD117. Purified cells were plated on neat Matrigel in the presence of a Rock inhibitor.
Beta cell differentiation was initiated 5 days post re-aggregation according to the protocol described by Nostro et al. (2011) further modified by Cheng et al. (2012a) in a 2D format. Dox was added at different stages of the beta cell differentiation process. Dox (1.5 μg/ml) induction was performed between days 6-15 of beta cell differentiation, between days 8-15 of beta cell differentiation, or between days 10-15 of beta cell differentiation. The cells were harvested on day 15 of beta cell differentiation, fixed, and stained for quantification of PDX/NeuroD1/C-peptide/Glucagon/Somatostatin by intracellular flow cytometry.
The experiment was performed again with the addition of Dox (1.5 μg/ml) between day 10-15 of beta cell differentiation. The cells were harvested on day 15 of beta cell differentiation and assayed for PDX/NeuroD1/C-Peptide/Glucagon/Somatostatin expression levels by intracellular flow cytometry. […] The total C-Peptide levels were around 10% of which 5% of cells appeared monohormonal. Glucagon expression was not recorded. C-peptide release assays were performed as described above. […] Both the Dox induced and un-induced beta cell cultures were capable of eliciting a dose-dependent response to glucose (FIG. 30).

2.038AT4 cells [4] = assay: qPCR analysis of ERG and GFI expression; details: Dox induction during beta cell differentiation
Method: The levels of ERG (FIG. 32A) and GFI (FIG. 32B) transcripts at different stages of the process were quantified from 2.038 and 2.038AT4 cells. Dox induction of 2.038AT4 cells was only applied at the beta cell differentiation stage. Cells from 2.038AT4 were always cultured in media containing neomycin (100 μg/mL) and puromycin (600 ng/mL) regardless of stage of differentiation. RNA was isolated from undifferentiated iPSC, DE, EPC, and beta cell cultures derived from 2.038 cells and 2.038AT4 cells using the RNeasy Plus Mini Kit from Qiagen (Catalog #74136) according to the manufacturer's directions. RNA quantification was performed using the Nanodrop 2000. RNA was reverse transcribed with the ImProm-II RT System from Promega (Catalog # A3800) according to manufacturer's directions. rt-qPCR was performed using TaqMan Gene Expression Master Mix (Catalog #4369016) and TaqMan probes (ERG: Hs01554629_m1; GFI1: Hs00382207_m1; GAPDH: Hs99999905_m1) with technical triplicates and run on the Roche LightCycler for 45 cycles. Fold induction was calculated by DeltaCp with normalization to GAPDH. Undifferentiated iPSCs of the same genetic background were used as negative controls. Whole pancreas RNA (Ambion Catalog # AM7954) and human islets provided by the UW Islet Core were used as positive controls.

SMILES: Cc1c[nH]c(-c2cnc(NCCNc3ccc(C#N)cn3)nc2-c2ccc(Cl)cc2Cl)n1 [CHIR, CHIR99021]
CXCR4/CD117 co-expressing cells ([1]; cell line 2.038 (1131), format 6 well, harvested day 7): 45% | Output DE Day 7 ([1]; cell line 2.038 (1131), format 6 well, input iPSCs 1.95 ×10^6): 84 ×10^6 | CXCR4/CD117 co-expressing cells ([1]; cell line 2.038, format T150, harvested day 7): 54% | Output DE Day 7 ([1]; cell line 2.038, format T150, input iPSCs 5.85 ×10^6): 186 ×10^6 | Effect on efficiency of DE formation ([1]; CHIR added on day zero of endoderm induction): did not result in increased efficiency of DE formation

Level of ERG/GFI transcripts (2.038AT4 cells [4]): slight increase
SMILES: C[C@H]1c2cccc(O)c2C(=O)C2=C(O)[C@]3(O)C(=O)C(C(N)=O)=C(O)[C@@H](N(C)C)[C@@H]3[C@@H](O)[C@@H]21 [Dox, Doxycycline]
Glucose concentration range of dose-dependent C-peptide response ([2]; Dox 1.5 μg/ml between day 10-15, repeat experiment, un-induced cultures also responded): 1 to 15 mM | Glucose concentration range eliciting C-peptide response ([2]; Dox induction between days 10-15): 1 to 5 mM | Monohormonal cells (2.038AT4 cells [3]): 5% | PDX/NeuroD1 expression (2.038AT4 cells [3]): 25%-30 | Total C-Peptide levels (2.038AT4 cells [3]): around 10%
